From the supplement of paper PMC10307832

Legend:
Experiment in all cases: relative viability (nuclei count vs DMSO), 5 days (fraction); higher = more cells survive
Tipifarnib + Vorinostat = compound: Cn1cncc1[C@@](N)(c1ccc(Cl)cc1)c1ccc2c(c1)c(-c1cccc(Cl)c1)cc(=O)n2C [Tipifarnib] + O=C(CCCCCCC(=O)Nc1ccccc1)NO [Vorinostat] (partner 1 µM)
Outline: (§1)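 Nuclei were stained with Hoechst during a one-step fixation (final 0.05% Triton X-100, 1% formaldehyde, 1 ug/ml Hoechst) carried out 5 days after dosing, then counted on 4× images. The cells, lung cancer lines in 1536-well plates, had been dosed by pin tool the day after seeding with one drug alone or a fixed anchor-drug dose plus five library-drug doses (not always all listed) in √10 steps. Relative viability is the nuclei count in treated wells divided by that in vehicle wells, and each value is the median of duplicate plates.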

Tipifarnib + Alpelisib = compound: Cn1cncc1[C@@](N)(c1ccc(Cl)cc1)c1ccc2c(c1)c(-c1cccc(Cl)c1)cc(=O)n2C [Tipifarnib] + Cc1nc(NC(=O)N2CCC[C@H]2C(N)=O)sc1-c1ccnc(C(C)(C)C(F)(F)F)c1 [Alpelisib] (partner 2 µM)
Outline: as §1

Tipifarnib + Navitoclax = compound: Cn1cncc1[C@@](N)(c1ccc(Cl)cc1)c1ccc2c(c1)c(-c1cccc(Cl)c1)cc(=O)n2C [Tipifarnib] + CC1(C)CCC(c2ccc(Cl)cc2)=C(CN2CCN(c3ccc(C(=O)NS(=O)(=O)c4ccc(N[C@H](CCN5CCOCC5)CSc5ccccc5)c(S(=O)(=O)C(F)(F)F)c4)cc3)CC2)C1 [Navitoclax] (partner 0.5 µM)
Outline: as §1

Tipifarnib + Linsitinib = compound: Cn1cncc1[C@@](N)(c1ccc(Cl)cc1)c1ccc2c(c1)c(-c1cccc(Cl)c1)cc(=O)n2C [Tipifarnib] + C[C@]1(O)C[C@@H](c2nc(-c3ccc4ccc(-c5ccccc5)nc4c3)c3c(N)nccn32)C1 [Linsitinib] (partner 1 µM)
Outline: as §1

| Cell Line | relative viability (Tipifarnib + Vorinostat; first compound 0.01 µM) | relative viability (Tipifarnib + Vorinostat; first compound 0.03162 µM) | relative viability (Tipifarnib + Vorinostat; first compound 0.1 µM) | relative viability (Tipifarnib + Vorinostat; first compound 0.3162 µM) | relative viability (Tipifarnib + Vorinostat; first compound 1 µM) | relative viability (Tipifarnib + Alpelisib; first compound 0.01 µM) | relative viability (Tipifarnib + Alpelisib; first compound 0.03162 µM) | relative viability (Tipifarnib + Alpelisib; first compound 0.1 µM) | relative viability (Tipifarnib + Alpelisib; first compound 0.3162 µM) | relative viability (Tipifarnib + Alpelisib; first compound 1 µM) | relative viability (Tipifarnib + Navitoclax; first compound 0.01 µM) | relative viability (Tipifarnib + Navitoclax; first compound 0.03162 µM) | relative viability (Tipifarnib + Navitoclax; first compound 0.1 µM) | relative viability (Tipifarnib + Navitoclax; first compound 0.3162 µM) | relative viability (Tipifarnib + Navitoclax; first compound 1 µM) | relative viability (Tipifarnib + Linsitinib; first compound 0.01 µM) | relative viability (Tipifarnib + Linsitinib; first compound 0.03162 µM) | relative viability (Tipifarnib + Linsitinib; first compound 0.1 µM) | relative viability (Tipifarnib + Linsitinib; first compound 0.3162 µM) | relative viability (Tipifarnib + Linsitinib; first compound 1 µM) |
| --- | --- | --- | --- | --- | --- | --- | --- | --- | --- | --- | --- | --- | --- | --- | --- | --- | --- | --- | --- | --- |
| LU99A | 0.389 | 0.385 | 0.327 | 0.271 | 0.277 | 0.442 | 0.36 | 0.297 | 0.261 | 0.238 | 0.668 | 0.618 | 0.488 | 0.455 | 0.356 | 0.563 | 0.477 | 0.299 | 0.257 | 0.272 |
| NCI-H647 | 0.321 | 0.326 | 0.352 | 0.157 | 0.13 | 1.05 | 0.822 | 0.838 | 0.44 | 0.488 | 0.983 | 0.813 | 0.822 | 0.397 | 0.37 | 1.35 | 1.04 | 0.649 | 0.557 | 0.609 |
| A-427 | 0.839 | 0.849 | 0.621 | 0.8 | 0.655 | 1.21 | 1.1 | 1.06 | 1.02 | 0.952 | 1 | 0.951 | 0.955 | 0.874 | 0.812 | 1.18 | 1.11 | 1.05 | 1.09 | 1.09 |
| COR-L 105 | 0.982 | 0.75 | 0.605 | 0.504 | 0.478 | 1.12 | 0.891 | 0.731 | 0.46 | 0.649 | 0.874 | 0.578 | 0.739 | 0.576 | 0.559 | 0.88 | 0.855 | 0.674 | 0.554 | 0.668 |
| NCI-H441 | 1.08 | 0.724 | 0.68 | 0.431 | 0.44 | 0.712 | 1.06 | 0.54 | 0.307 | 0.379 | 0.498 | 0.255 | 0.481 | 0.294 | 0.253 | 0.67 | 0.455 | 0.413 | 0.402 | 0.33 |
| NCI-H2126 | 0.797 | 0.752 | 0.763 | 0.768 | 0.409 | 0.759 | 0.729 | 0.799 | 0.733 | 0.706 | 0.888 | 0.822 | 0.845 | 0.74 | 0.709 | 0.758 | 0.617 | 0.692 | 0.692 | 0.682 |
| HCC-44 | 0.963 | 1.04 | 1.01 | 0.903 | 0.881 | 0.742 | 0.747 | 0.62 | 0.615 | 0.58 | 1.06 | 0.944 | 0.784 | 0.726 | 0.696 | 0.563 | 0.615 | 0.557 | 0.493 | 0.521 |
| NCI-H460 | 0.734 | 0.329 | 0.283 | 0.116 | 0.116 | 0.572 | 0.527 | 0.198 | 0.115 | 0.0453 | 1.13 | 0.905 | 0.531 | 0.252 | 0.0922 | 0.841 | 0.639 | 0.173 | 0.146 | 0.0526 |
| SK-LU-1 | 0.771 | 0.635 | 0.492 | 0.417 | 0.471 | 1.06 | 0.655 | 0.528 | 0.49 | 0.516 | 0.779 | 0.488 | 0.435 | 0.25 | 0.405 | 0.986 | 0.728 | 0.642 | 0.631 | 0.67 |
| NCI-H322M | 0.869 | 0.991 | 0.813 | 0.863 | 0.725 | 0.765 | 0.816 | 0.767 | 0.741 | 0.658 | 1.18 | 1.2 | 1.31 | 0.971 | 1.19 | 0.934 | 0.921 | 0.96 | 0.672 | 0.853 |
| EKVX | 0.76 | 0.634 | 0.549 | 0.439 | 0.53 | 0.895 | 0.883 | 0.83 | 0.595 | 0.652 | 1.01 | 0.861 | 0.841 | 0.744 | 0.49 | 1.06 | 1.11 | 0.972 | 0.755 | 0.657 |
| NCI-H1734 | 0.791 | 0.553 | 0.534 | 0.368 | 0.364 | 0.714 | 0.598 | 0.592 | 0.501 | 0.418 | 0.882 | 0.718 | 0.635 | 0.464 | 0.431 | 0.875 | 0.85 | 0.709 | 0.694 | 0.48 |
| NCI-H520 | 0.781 | 0.695 | 0.599 | 0.515 | 0.47 | 1.11 | 0.823 | 0.845 | 0.458 | 0.471 | 1.24 | 1.03 | 0.917 | 0.965 | 0.72 | 1.11 | 0.849 | 0.987 | 0.673 | 0.737 |
| EPLC-272H | 0.4 | 0.457 | 0.371 | 0.233 | 0.139 | 1.06 | 0.823 | 0.951 | 0.613 | 0.46 | 1.34 | 0.908 | 1.07 | 0.837 | 0.741 | 1.17 | 1.16 | 1.21 | 0.83 | 0.531 |
| UMC-11 | 0.314 | 0.348 | 0.338 | 0.291 | 0.307 | 0.939 | 0.691 | 0.504 | 0.409 | 0.487 | 0.263 | 0.211 | 0.235 | 0.191 | 0.194 | 0.86 | 0.632 | 0.563 | 0.523 | 0.577 |
| NCI-H1993 | 0.819 | 0.446 | 0.489 | 0.468 | 0.497 | 0.71 | 0.679 | 0.675 | 0.677 | 0.671 | 0.852 | 0.866 | 0.765 | 0.645 | 0.671 | 0.772 | 0.746 | 0.73 | 0.732 | 0.789 |
